Earlier results on one molecule are cited in US11147926B2, “Intrathecal baclofen pharmaceutical dosage forms and related delivery system” (PIRAMAL CRITICAL CARE, INC., priority 2008, dated 2021).

For data set [1] the following is noted: injected into the intrathecal space of a patient, at effective CSF concentrations, versus oral.

As for `NCC(CC(=O)O)c1ccc(Cl)cc1` (stereo not shown) [Baclofen, 4-amino-3-(p-chlorophenyl)butyric acid], the solubility in chloroform result (chloroform) is “insoluble”. For the same molecule, the solubility in methanol entry (methanol) is “very slightly soluble”. In addition, for the setting “water”, the solubility in water entry is “slightly soluble”. In data set [1], the “plasma concentrations, times less than with oral administration” value is recorded as 100 times.
